Experimental data: US20060240474A1, “Peptides able to switch between two structural states and their use” (UNIVERSITY OF SUSSEX, priority 2002, published 2006)
Where a SMILES comes first, the peptide text is derived from it. Bridges are numbered along the chain shown (N, C = ends). Where no end group is shown, it is not given here. The star is where a group is joined. Cam = NC(=O)C*

Legend:
[1] = Circular dichroism spectroscopy (helicity); type: physicochemical; conditions: pH 7; comparator named in the value
Method: (§1) Circular dichroism spectroscopy. CD measurements were made using a JASCO J-715 spectropolarimeter fitted with a Peltier temperature controller. Peptide solutions were prepared in 25 mM potassium phosphate buffer at pH 7 and were examined in 1 mm or 1 cm quartz cuvettes (with stirring). Spectra were recorded at 5° C. using 1 nm intervals, a 1 nm bandwidth and 4 sec response time. Thermal unfolding curves were recorded through 1° C. min^−1 ramps using a 2 nm bandwidth, averaging the signal for 16 s every 1° C. intervals. After baseline correction, ellipticities in mdeg were converted to molar ellipticities (deg cm^2 dmol-res-^−1) by normalising for the concentration of peptide bonds.

[2] = Thermal unfolding followed by CD spectroscopy; type: physicochemical; conditions: comparator named in the value
Method: as §1

[3] = Conformational switching of oxidised CSP-3 to the reduced form, CD time scan at 222 nm; type: physicochemical; conditions: 20-fold excess (2 mM)
Method: The molar ellipticity at 222 nm was recorded. To induce the switch of the peptide from its oxidised to its reduced form a reducing agent for the disulphide bond was added. Two reducing agents were used for comparison, DTE and β-mercaptoethanol, in 20-fold excess (2 mM). […] The time taken to initiate the scan after addition of reducing agent was noted. […] A wavelength scan (190-260 nm) was run for each sample once the switch experiment was complete to record the spectrum of the reduced peptide. The data obtained from the time course reaction was analysed using the data analysis program Origin (v. 11) (see FIG. 5) A single exponential curve for a first order reaction has been fitted to the data from a switch experiment, using the data analysis program Origin. The equation for the curve is: y=Ae^−kt+B where A=amplitude of signal • B=[…] • k=rate constant • t=time […]

[4] = Sedimentation equilibrium analytical ultracentrifugation (monomer-dimer equilibrium); type: physicochemical; conditions: monomer-dimer fit, 5° C., pH 7; read-out: KD (95% confidence limits)
Method: Sedimentation equilibrium experiments were conducted at 5° C. in a Beckman-Optima XL-I analytical ultracentrifuge fitted with an An-60 Ti rotor. A […] peptide solution at […] in 25 mM K phosphate buffer pH 7 containing 0.1 M KCl was equilibrated for 48 h at speeds of 40 000, 47 500/50 000 and 55 000/60 000 rpm. […] The molecular weights (Table 2) and partial specific volumes (range 0.7417 to 0.7461) of the peptides were calculated from their amino-acid sequences, and the viscosity of the buffer at 5° C. was taken to be […].

[5] = biological target: the molecule itself; test: sedimentation equilibrium AUC, poor monomer-dimer fit, 5 C (homodimerisation)
Method: (§2) Sedimentation equilibrium experiments were conducted at 5° C. in a Beckman-Optima XL-I analytical ultracentrifuge fitted with an An-60 Ti rotor. A […] peptide solution at […] in 25 mM K phosphate buffer pH 7 containing 0.1 M KCl was equilibrated for 48 h at speeds of 40 000, 47 500/50 000 and 55 000/60 000 rpm. Data were fitted simultaneously assuming either a single ideal species or a monomer-dimer equilibrium and fixed monomer molecular weight, using routines in the Beckman-Optima XL-A/XLI-I data analysis software (v4.0). The molecular weights (Table 2) and partial specific volumes (range 0.7417 to 0.7461) of the peptides were calculated from their amino-acid sequences, and the viscosity of the buffer at 5° C. was taken to be […].
However, the reduced form of the peptide, CSP-2r, was only partially folded as judged from CD spectra (consistent with only ˜20% helix) (see FIG. 3A). […] (see FIG. 3B). […] The data fitted best assuming a single ideal species, and returned a molecular weight close to that expected for monomer (see Table 2). Fits to monomer-dimer were poor and gave weak dissociation constants in the 10-100 mM range.

[6] = biological target: the molecule itself; test: sedimentation equilibrium (AUC), self-association
Method: as §2

CC[C@H](C)[C@@H]1NC(=O)[C@H](CCCCN)NC(=O)[C@H](CCC(N)=O)NC(=O)[C@H](CCC(=O)O)NC(=O)[C@H](CC(C)C)NC(=O)[C@H](C)NC(=O)[C@H](CCCNC(=N)N)NC(=O)[C@H]([C@@H](C)CC)NC(=O)[C@H](CCCCN)NC(=O)[C@H](C)NC(=O)[C@H](CCC(N)=O)NC(=O)[C@H](CCCCN)NC(=O)[C@H](C)NC(=O)[C@H](CCC(N)=O)NC(=O)[C@H](CCCCN)NC(=O)[C@H](CC(C)C)NC(=O)[C@H](CCCNC(=N)N)NC(=O)[C@H](C)NC(=O)[C@H]([C@@H](C)CC)NC(=O)[C@H](CCC(=O)O)NC(=O)[C@H](Cc2ccc(O)cc2)NC(=O)[C@H](CCCCN)NC(=O)[C@H](CC(C)C)NC(=O)[C@H](C)NC(=O)[C@H](CCCNC(=N)N)NC(=O)[C@H]([C@@H](C)CC)NC(=O)[C@H](CCC(=O)O)NC(=O)CNC(=O)CNC(=O)[C@@H](N)CSSC[C@@H](C(=O)O)NC(=O)CNC(=O)CNC(=O)[C@H](CCC(=O)O)NC(=O)[C@H](CC(C)C)NC(=O)[C@H](C)NC(=O)[C@H](C)NC1=O [CSP-3o] (H-CGGEIRALKYEIARLKQAKQAKIRALEQKIAALEGGC-OH; disulfide 1-37; N-terminus and C-terminus assumed)
helicity compared with other designs (CD signal at 222 nm) [1]: marginally improved helicity and thermal stability over CSP-2o | thermal stability in words [2]: marginally improved helicity and thermal stability over CSP-2o | time taken for reduction to complete ([3]; with DTE): 75 min | time taken for reduction to complete ([3]; with βME): 180 min

CGGEIRALKYEIARLKQ----KKRALEQKIAALEGGC [CSP-1r]
Kd [4]: 0.033 mM

B1: CSP-2r (reduced and alkylated) (peptide)
peptide: C(Cam)GGEIRALKYEIARLKQGGGGKKRALEQKIAALEGGC(Cam)
notes: CSP-1 with a tetraglycine insert; also called design iteration 2, reduced & alkylated; CSP-4a (Maya's nomenclature)
Kd [5]: 10 to 100 mM

B2: CSP-2o (intra-molecularly oxidised) (peptide)
peptide: CGGEIRALKYEIARLKQGGGGKKRALEQKIAALEGGC
modifications: disulfide 1-37
notes: also called design iteration 2, oxidised; CSP-4o (Maya's nomenclature)
binding result [6]: no binding
